Laboratory results taken from US20250099517A1, “Use of Lactobacillus reuteri Y7 strain for prevention or treatment of ocular diseases” (Taipei Medical University, priority 2023, published 2025).

Test system: MCP-1, IL-18, NLRP3, NF-KB p65, Caspase1 gene expression
Assay: q-PCR of inflammation-related gene expression in eyes
Assay type: in vivo, C57BL/6 mice
Settings: for gene expression of MCP-1 compared with the BL group / gene expression of NF-KB p65 compared with the BL group: p<0.05; for gene expression of Caspase1 / gene expression of IL-18 / gene expression of NLRP3: versus increase in BL group
Method: The C57BL/6 mice, which weighed between 23 and 25 g, were divided into seven groups randomly. In each group, the six mice induced by blue light successfully were incorporated in experiments. The samples dissolved in deuterium-depleted water (DDW) were fed to mice through oral tubes once a day. The groups were named and introduced as follows: • (1) Solvent not classified group (NC): The mice were fed with 0.2 ml deuterium-depleted water (DDW) through tubes; • (2) Negative control group (Blue light (BL)): The mice were fed with 0.2 ml deuterium-depleted water (DDW) through tubes and exposed to blue light; • (3) Low-dosage Y7 probiotics group […]): The mice were fed with low-dosage Y7 probiotics (probiotic counts of 1.0×10^8 CFU/ml dissolved in 0.2 ml DDW per day) and exposed to blue light; • (4) High-dosage Y7 probiotics group […]): The mice were fed with high-dosage Y7 probiotics (probiotic counts of 1.0×10^9 CFU/ml dissolved in 0.2 ml DDW per day) and exposed to blue light; • (5) Positive control group (lutein (LU)): The mice were fed with lutein and exposed to blue light. The recommended human dosage of lutein is 30 mg. The mouse cage (48×25×20 cm) placed inside a stainless ventilated box was equipped with blue light boards as blue light sources around and above. In the experiment of animals exposed to blue light, six-week-old mice staying in the mouse cage were fed with drinking water as well as fodders and exposed to 400 Lux blue light illumination under the light-dark cycle of 12-hour light and 12-hour dark. The experiment was aimed at causing mice' late dry macular disease induced by chronic light injuries for simulating a human being's macular disease after long-term exposure to short-wavelength blue light from 3C products in daily life. The eyes of a mouse sacrificed were collected for the following purposes. RNAs extracted with Trizol were reverse-transcribed to cDNAs. Then, the real-time quantitative polymerase chain reaction was enabled to detect gene expressions related to inflammatory hormones and apoptosis such as TNF-α, IL-1B, IL-6, Bax, Bcl-2, Caspase1, Caspase3 and NLRP3 for comparisons with the endogenous level of β-actin, GAPDH or 18S rRNA. [table] The gene expressions related to a mouse's ocular inflammation, for example, MCP-1 (FIG. 8a), IL-18 (FIG. 8b), NLRP3 (FIG. 8c), NF-KB p65 (FIG. 8d), Caspase1 (FIG. 8e), TNF-α (FIG. 8f), IL-6 (FIG. 8g) and IL-1β (FIG. 8h), were analyzed in the experiment. […] In summary, the intervention of Y7 probiotics relieved ocular inflammation attributed to blue light.

Lactobacillus reuteri Y7 [Y7 probiotics]
gene expression of MCP-1 compared with the BL group (Y7H high-dosage group): reduced significantly | gene expression of NF-KB p65 compared with the BL group (Y7H high-dosage group): reduced significantly | gene expression of Caspase1 (Y7H high-dosage group): decreased | gene expression of IL-18 (Y7H high-dosage group): decreased | gene expression of NLRP3 (Y7H high-dosage group): decreased | gene expression of MCP-1 compared with the BL group (Y7L low-dosage group): reduced significantly | gene expression of NF-KB p65 compared with the BL group (Y7L low-dosage group): reduced significantly | gene expression of Caspase1 (Y7L low-dosage group): decreased | gene expression of IL-18 (Y7L low-dosage group): decreased | gene expression of NLRP3 (Y7L low-dosage group): decreased
